Results: patent US9457037B2, “Combination composition, comprising as active ingredients L-carnitine or propionyl L-carnitine, for the prevention or treatment of chronic venous insufficiency” (SIGMA-TAU INDUSTRIE FARMACEUTICHE RIUNITE S.P.A., priority 2010, dated 2016)

Experiments:
[1] = test system: isolated aorta from spontaneously hypertensive rats; assay: Relaxant effect on aortic rings precontracted by phenylephrine; parameters: species or system rat; details: 100 micro-molar each component, final concentration in organ chamber; rings precontracted by phenylephrine (1 micromolar); n=8
Procedure: The objective of this study was to investigate the vasoarelaxation effects of the compositions of the invention using isolated aorta from spontaneously hypertensive rats. The compounds tested were used at a concentration expressed as final concentration in the organ chamber. Male spontaneously hypertensive rats (SHR) 10-12 weeks old, weighing 250-300 g, were housed at 24±2° C. with 60±20% relative humidity, on a 12-h light-dark cycle. Rats were given free access to a diet of standard food and water. All experiments were performed according to the guidelines for the ethical treatment of animals of the European Union. The rats were killed by cervical dislocation and the aortae were rapidly dissected. […] Aortic rings were mounted under a basal tension of 2 g in 20 mL organ baths containing PSS and attached to an isometric transducer (Harvard UF-1); the signal was recorded by a Powerlab data acquisition system (AD-Instruments). […] The relaxant effect of compounds tested was assessed by adding the compound to aortic rings precontracted by phenylephrine (1 micromolar). […] All the results were expressed as a percentage of the maximal contraction of phenylephrine-induced responses. Results are expressed as percentages from the initial precontraction level. The significance was calculated on the actual contraction values means±SE (n=8 aorta preparations per group). […]

[2] = test system: recto-anus swelling induced by croton oil; assay: Croton oil-induced hemorrhoid model in rats (swelling of the recto-anus, RAC); assay type: in vivo, rat; details: with croton oil (3%) induction, 24 h after induction; oral once per day for five days; 20 mg/kg carnitines, 30 mg/kg flavonoids; male SD rats, n = 5
Procedure: Male SD rats (6 weeks old, approximately 140 g) were purchased from Harlan Sprague Dawley and allowed to acclimate for 1 week. The rats were maintained in a pathogen-free facility in accordance with the National Research Council of Laboratory Animal care and use guidelines. Each experiment was preformed with age-matched rats 7-8 weeks old. The croton oil-induced hemorrhoid model in rats was performed according to the method published by Nishiki (Nishiki et al. (1988) Folia Pharmacology Japan 92:215-225; Nishiki et al. (1988) Folia Pharmacol. Japan 92:227-240). Briefly, a cotton swab with a diameter of 4 mm soaked with 0.16 mL of inducer (deionized water:pyridine:ethyl ether:6% croton oil/ethyl ether (1:4:5:10) was applied to the rat's anus for 12 seconds. The final concentration of croton oil was 3%. The edema developed linearly until 7-8 hours after application and the severity of the edema was sustained for more than 24 hours. Twenty-four hours later, recto-anus tissue (approx. 10 mm long) was isolated after the rats were euthanized. The weights of rat body and recto-anus were measured. The recto-anus coefficient (RAC) was calculated using the formula: weight of recto-anus (mg)/body weight (g). […]
Twenty-four hours after hemorrhoid induction with croton oil the RAC of rats was determined.

COc1ccc([C@@H]2CC(=O)c3c(O)cc(O[C@@H]4O[C@H](CO[C@@H]5O[C@@H](C)[C@H](O)[C@@H](O)[C@H]5O)[C@@H](O)[C@H](O)[C@H]4O)cc3O2)cc1O [Hesperidine, hesperidine]
% RELAXATION [1]: 9%
RAC (recto-anus coefficient: weight of recto-anus (mg)/body weight (g)) [2]: 2.07

CCC(=O)O[C@H](CC(=O)[O-])C[N+](C)(C)C [Propionyl L-carnitine, propionyl L-carnitine]
% RELAXATION [1]: 28%
RAC (recto-anus coefficient: weight of recto-anus (mg)/body weight (g)) [2]: 1.96
